Data on 34 compounds can be found in patent publication US11453666B2, “Autotaxin inhibitory compounds” (Cancer Research Technology Limited, priority 2015, dated 2022).

The experiment deals with human recombinant ATX (Homo sapiens, UniProt Q13822). Nature of the experiment: Autotaxin (ATX) activity Quanta Red assay. Format: biochemical. The method, boiled down: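 Recombinant human ATX reaction stopped after 2 h with Quanta Red stop solution; fluorescence read at […]. Controls with DMSO, with and without ATX; IC50 in duplicate.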
[1] abbreviates: read-out: Activity (ATX activity, Quanta Red assay; IC50).
The mark [2] stands for this setting: human recombinant ATX 0.8 μg/mL, 2 hours at room temperature, IC50 determined in duplicate, read-out: Activity (ATX activity, Quanta Red assay; IC50).
Setting [3] is: Table 2: additional compounds tested for ATX activity (Quanta Red Assay), read-out: Activity.

Each structure is given as a SMILES string. Where two headings read alike, the source gives them in different places.

Take `CC[C@H](NC(=O)CCc1nc2cccnc2n1Cc1ccc(F)c(F)c1)c1ccccc1` [Example 89, 3-[3-(3,4-Difluoro-benzyl)-3H-imidazo[4,5-b]pyridin-2-yl]-N-((S)-1-phenyl-propyl)-propionamide]: under setting [1], the IC50 amounted to 8 nM. Still for that read-out and setting: for `CC[C@H](NC(=O)CCc1nc2ccncc2n1Cc1ccc(F)cc1)c1ccccc1` [Example 127, 3-[3-(4-Fluoro-benzyl)-3H-imidazo[4,5-c]pyridin-2-yl]-N-((S)-1-phenyl-propyl)-propionamide] the value was 14 nM. On the same count and under the same terms, for `COc1ccc(CCNC(=O)CCc2nc3cccnc3n2Cc2ccc(OC)cc2)cc1` [Example 116, 3-[3-(4-Methoxy-benzyl)-3H-imidazo[4,5-b]pyridin-2-yl]-N-[2-(4-methoxy-phenyl)-ethyl]-propionamide] the value was 778 nM; for `C[C@H](NC(=O)CCc1nc2cccnc2n1Cc1ccc(F)cc1)c1ccc(Br)cc1` [Example 83, N—[(S)-1-(4-bromo-phenyl)-ethyl]-3-[3-(4-fluoro-benzyl)-3H-imidazo[4,5-b]pyridin-2-yl]-propionamide], 2 nM.

`C[C@H](NC(=O)CCc1nc2cccnc2n1Cc1ccc(C(F)(F)F)cc1)c1ccc(Cl)cc1` [Example 12, N-[(S)-1-(4-Chloro-phenyl)-ethyl]-3-[3-(4-trifluoromethyl-benzyl)-3H-imidazo[4,5-b]pyridin-2-yl]-propionamide]: the IC50 under setting [2] turned out to be 2 nM. For `C[C@H](NC(=O)CCc1nc2cccnc2n1Cc1cccs1)c1ccc(Cl)cc1` [Example 44, N-[(S)-1-(4-Chloro-phenyl)-ethyl]-3-(3-thiophen-2-ylmethyl-3H-imidazo[4,5-b]pyridin-2-yl)-propionamide], the IC50 under setting [1] stood at 12 nM.

`O=C(CCc1nc2cccnc2n1Cc1ccccc1)NCC1CCCCC1` [Example 111, 3-(3-Benzyl-3H-imidazo[4,5-b]pyridin-2-yl)-N-cyclohexylmethyl-propionamide]: under setting [1], the IC50 worked out at 406 nM. For the compound `O=C(NCc1nc2cccnc2n1Cc1ccc(F)c(F)c1)N[C@@H](CO)c1ccccc1` [Example 162, 1-[3-(3,4-difluoro-benzyl)-3H-imidazo[4,5-b]pyridin-2-ylmethyl]-3-((R)-2-hydroxy-1-phenyl-ethyl)-urea], the IC50 under setting [1] was 209 nM. Regarding `C[C@@H]1CN(c2ccc([C@H](C)NC(=O)CCc3nc4cccnc4n3Cc3ccc(OC(F)(F)F)cc3)cc2)C[C@H](C)N1` [Example 171, N-{(S)-1-[4-((cis)-3,5-Dimethyl-piperazin-1-yl)-phenyl]-ethyl}-3-[3-(4-trifluoromethoxy-benzyl)-3H-imidazo[4,5-b]pyridin-2-yl]-propionamide], the IC50 under setting [1] came out at 2 nM. Turning to `O=C(CCc1nc2cccnc2n1Cc1ccc(F)c(F)c1)NCc1ccncc1` [Example 82, 3-[3-(3,4-Difluoro-benzyl)-3H-imidazo[4,5-b]pyridin-2-yl]-N-pyridin-4-ylmethyl-propionamide], under setting [1], the IC50 amounted to 987 nM.

Turning to `Cc1csc(NC(=O)CCc2nc3cccnc3n2Cc2ccc(OC(F)(F)F)cc2)n1` [Example 77, N-(4-Methyl-thiazol-2-yl)-3-[3-(4-trifluoromethoxy-benzyl)-3H-imidazo[4,5-b]pyridin-2-yl]-propionamide], under setting [1], the IC50 stood at 714 nM. On the same count and under the same terms, for `C[C@H](NC(=O)CCc1nc2cccnc2n1Cc1ccc(F)c(F)c1)c1ccc(N2CCNC(C(F)(F)F)C2)cc1` (stereo partly drawn) [Example 179, 3-[3-(3,4-Difluoro-benzyl)-3H-imidazo[4,5-b]pyridin-2-yl]-N-{(S)-1-[4-(3-trifluoromethyl-piperazin-1-yl)-phenyl]-ethyl}-propionamide] the value was 5 nM.

Consider `COc1ccc(CNC(=O)CCc2nc3cccnc3n2Cc2ccc(OC(F)(F)F)cc2)cc1F` [Example 27, N-(3-Fluoro-4-methoxy-benzyl)-3-[3-(4-trifluoromethoxy-benzyl)-3H-imidazo[4,5-b]pyridin-2-yl]-propionamide], for which the IC50 under setting [1] stood at 4 nM. Same read-out and setting: for `C[C@H](NC(=O)CCc1nc2cccnc2n1Cc1ccc(F)c(F)c1)c1ccc(N2CCC(N(C)C)C2)cc1` (stereo partly shown) [Example 177] the value was 3 nM; for `C[C@H](NC(=O)CCc1nc2cccnc2n1Cc1ccc(Br)cc1)c1ccc(Cl)cc1` [Example 21, 3-[3-(4-Bromo-benzyl)-3H-imidazo[4,5-b]pyridin-2-yl]-N-[(S)-1-(4-chloro-phenyl)-ethyl]-propionamide], 5 nM. On to `COc1ccc(Cn2c(CCC(=O)NCCc3ccc(SC)cc3)nc3cccnc32)cc1` [Example 221, 3-[3-(4-Methoxy-benzyl)-3H-imidazo[4,5-b]pyridin-2-yl]-N-[2-(4-methylsulfanyl-phenyl)-ethyl]-propionamide], for which the IC50 under setting [3] amounted to 154 nM. Regarding `O=C(CCc1nc2cccnc2n1Cc1ccc(F)cc1)NC(CO)c1ccc(OC(F)(F)F)cc1` (stereo not shown) [Example 33, 3-[3-(4-Fluoro-benzyl)-3H-imidazo[4,5-b]pyridin-2-yl]-N-[2-hydroxy-1-(4-trifluoromethoxy-phenyl)-ethyl]-propionamide], under setting [1], the IC50 was 6 nM. On the same count and under the same terms, for `O=C(CCc1nc2cccnc2n1Cc1ccc(F)c(F)c1)NC[C@@H](O)c1ccccc1` [Example 65, 3-[3-(3,4-Difluoro-benzyl)-3H-imidazo[4,5-b]pyridin-2-yl]-N-((S)-2-hydroxy-2-phenyl-ethyl)-propionamide] the value was 155 nM. Same read-out and setting: for `COc1ccc(CNC(=O)CCc2nc3cccnc3n2Cc2ccc(OC(F)(F)F)cc2)cc1` [Example 14, N-(4-Methoxy-benzyl)-3-[3-(4-trifluoromethoxy-benzyl)-3H-imidazo[4,5-b]pyridin-2-yl]-propionamide] the value was 2 nM. Turning to `C[C@H](NC(=O)CCc1nc2cccnc2n1Cc1ccccc1)c1ccccc1` [Example 1, 3-(3-benzyl-3H-imidazo[4,5-b]pyridin-2-yl)-N—((S)-1-phenyl-ethyl)-propionamide], the IC50 under setting [2] was determined as 68 nM. For `C[C@H](NC(=O)CCc1nc2cccnc2n1Cc1ccc(F)c(F)c1)c1ccc(CN(C)C)cc1` [Example 208, 3-[3-(3,4-Difluoro-benzyl)-3H-imidazo[4,5-b]pyridin-2-yl]-N-[(S)-1-(4-dimethylaminomethyl-phenyl)-ethyl]-propionamide], the IC50 under setting [1] turned out to be 80 nM. Still for that read-out and setting: for `C[C@H](NC(=O)CCc1nc2cccnc2n1Cc1ccc(F)c(F)c1)c1ccc(N2CCNCC2)cc1` [Example 193, 3-[3-(3,4-Difluoro-benzyl)-3H-imidazo[4,5-b]pyridin-2-yl]-N-[(S)-1-(4-piperazin-1-yl-phenyl)-ethyl]-propionamide] the value was 83 nM. With `COc1ccc(Cn2c(CCC(=O)NCc3ccccc3)nc3cccnc32)cc1` [Example 236, N-Benzyl-3-[3-(4-methoxy-benzyl)-3H-imidazo[4,5-b]pyridin-2-yl]-propionamide, reference compound], the IC50 (Table 3: commercially available compounds tested for Autotaxin activity (Quanta Red assay), read-out: Activity) came to 406 nM. Consider `O=C(CCc1nc2cccnc2n1Cc1ccc(OC(F)(F)F)cc1)N[C@H]1CCCc2ccccc21` [Example 38, N-(S)-1,2,3,4-Tetrahydro-naphthalen-1-yl-3-[3-(4-trifluoromethoxy-benzyl)-3H-imidazo[4,5-b]pyridin-2-yl]-propionamide], for which the IC50 under setting [1] worked out at 9 nM. On the same count and under the same terms, for `CS(=O)(=O)N1CCC(CNC(=O)CCc2nc3cccnc3n2Cc2ccc(OC(F)(F)F)cc2)CC1` [Example 214, N-(1-methanesulfonyl-piperidin-4-ylmethyl)-3-[3-(4-trifluoromethoxy-benzyl)-3H-imidazo[4,5-b]pyridin-2-yl]-propionamide] the value was 30 nM.

Regarding `CSc1ccc(CCNC(=O)CCc2nc3cccnc3n2Cc2ccccc2)cc1` [Example 230, 3-(3-Benzyl-3H-imidazo[4,5-b]pyridin-2-yl)-N-[2-(4-methylsulfanyl-phenyl)-ethyl]-propionamide], under setting [3], the IC50 was found to be 688 nM.

In the case of `COc1ccc(Cn2c(CCC(=O)NCc3cccc(Cl)c3)nc3cccnc32)cc1` [Example 231, N-(3-Chloro-benzyl)-3-[3-(4-methoxy-benzyl)-3H-imidazo[4,5-b]pyridin-2-yl]-propionamide], the IC50 under setting [3] came to 200 nM. On to `C[C@H](NC(=O)CCc1nc2ccncc2n1Cc1ccc(F)cc1)c1ccccc1` [Example 130, 3-[3-(4-Fluoro-benzyl)-3H-imidazo[4,5-c]pyridin-2-yl]-N-((S)-1-phenyl-ethyl)-propionamide], for which the IC50 under setting [1] stood at 21 nM. As for `COc1ccc(Cn2c(CCC(=O)NCc3ccc4c(c3)OCO4)nc3cccnc32)cc1` [Example 234, N-Benzo[1,3]dioxol-5-ylmethyl-3-[3-(4-methoxy-benzyl)-3H-imidazo[4,5-b]pyridin-2-yl]-propionamide], under setting [3], the IC50 worked out at 720 nM. As to `COc1ccc(CNC(=O)CCc2nc3cccnc3n2Cc2ccc(F)c(F)c2)cc1` [Example 100, 3-[3-(3,4-Difluoro-benzyl)-3H-imidazo[4,5-b]pyridin-2-yl]-N-(4-methoxy-benzyl)-propionamide], the IC50 under setting [1] amounted to 50 nM. On the same count and under the same terms, for `COc1ccc(CNC(=O)CCc2nc3cccnc3n2Cc2cccc(F)c2)cc1` [Example 110, 3-[3-(3-Fluoro-benzyl)-3H-imidazo[4,5-b]pyridin-2-yl]-N-(4-methoxy-benzyl)-propionamide] the value was 262 nM; for `COc1ccc(CNC(=O)CCc2nc3cc(F)cnc3n2Cc2ccccc2OC)cc1` [Example 101, 3-[6-Fluoro-3-(2-methoxy-benzyl)-3H-imidazo[4,5-b]pyridin-2-yl]-N-(4-methoxy-benzyl)-propionamide], 55 nM.

For `COc1ccc(CNC(=O)CCc2nc3cccnc3n2Cc2ccc(C)cc2)cc1` [Example 103, N-(4-Methoxy-benzyl)-3-[3-(4-methyl-benzyl)-3H-imidazo[4,5-b]pyridin-2-yl]-propionamide], under setting [1], the IC50 was 57 nM. In the case of `CCOc1ccc(CCNC(=O)CCc2nc3cccnc3n2Cc2ccccc2)cc1` [Example 225, 3-(3-Benzyl-3H-imidazo[4,5-b]pyridin-2-yl)-N-[2-(4-ethoxy-phenyl)-ethyl]-propionamide], the IC50 under setting [3] turned out to be 708 nM.
